{"source": "patent US10213433B2", "about": "(AbbVie Inc., priority 2010, dated 2019)", "note": "pKi: −log10 of the molar value.", "data": [{"target": "Bcl-2 protein (Homo sapiens (Human), UniProt P10415)", "sequence (P10415 whole entry)": "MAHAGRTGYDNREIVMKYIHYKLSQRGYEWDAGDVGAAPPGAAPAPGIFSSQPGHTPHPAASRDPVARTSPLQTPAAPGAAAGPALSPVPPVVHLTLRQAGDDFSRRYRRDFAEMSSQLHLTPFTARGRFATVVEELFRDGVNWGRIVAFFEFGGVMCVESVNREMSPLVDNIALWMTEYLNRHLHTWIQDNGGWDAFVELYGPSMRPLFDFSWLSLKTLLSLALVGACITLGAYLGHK", "assay": "Bcl-2 binding TR-FRET (Time-Resolved Fluorescence-Resonance-Energy-Transfer) assay", "conditions": "inhibition constant for binding to Bcl-2 protein", "from_the_text": "The smaller the Ki value, the greater is the binding affinity.", "values": [{"smiles": "CN1CCC(COc2ccc(S(=O)(=O)NC(=O)c3ccc(N4CCN(CC5=C(c6ccc(Cl)cc6)CC(C)(C)CC5)CC4)cc3Oc3cnc4[nH]ccc4c3)cc2[N+](=O)[O-])CC1", "note": "[Compound 48, 4-(4-{[2-(4-chlorophenyl)-4,4-dimethylcyclohex-1-en-1-yl]methyl}piperazin-1-yl)-N-({4-[(1-methylpiperidin-4-yl)methoxy]-3-nitrophenyl}sulfonyl)-2-(1H-pyrrolo[2,3-b]pyridin-5-yloxy)benzamide]", "pKi": "> 11.00"}, {"smiles": "CC1(C)CCC(c2ccc(Cl)cc2)=C(CN2CCN(c3ccc(C(=O)NS(=O)(=O)c4ccc(NCC5CCOCC5)c([N+](=O)[O-])c4)c(Oc4cnc5[nH]ccc5c4)c3)CC2)C1", "note": "[Compound 75, 4-(4-{[2-(4-chlorophenyl)-5,5-dimethylcyclohex-1-en-1-yl]methyl}piperazin-1-yl)-N-({3-nitro-4-[(tetrahydro-2H-pyran-4-ylmethyl)amino]phenyl}sulfonyl)-2-(1H-pyrrolo[2,3-b]pyridin-5-yloxy)benzamide]", "pKi": "> 11.00"}, {"smiles": "CC1(C)CCC(CN2CCN(c3ccc(C(=O)NS(=O)(=O)c4ccc(NC[C@H]5CC[C@@H](O)C5)c([N+](=O)[O-])c4)c(Oc4cnc5[nH]ccc5c4)c3)CC2)=C(c2ccc(Cl)cc2)C1", "note": "[Compound 158, 4-(4-{[2-(4-chlorophenyl)-4,4-dimethylcyclohex-1-en-1-yl]methyl}piperazin-1-yl)-N-{[4-({[(1S,3R)-3-hydroxycyclopentyl]methyl}amino)-3-nitrophenyl]sulfonyl}-2-(1H-pyrrolo[2,3-b]pyridin-5-yloxy)benzamide]", "pKi": "> 11.00"}, {"smiles": "CC1(C)CCC(CN2CCN(c3ccc(C(=O)NS(=O)(=O)c4ccc(NCCC#N)c([N+](=O)[O-])c4)c(Oc4cnc5[nH]ccc5c4)c3)CC2)=C(c2ccc(Cl)cc2)C1", "note": "[Compound 62, 4-(4-{[2-(4-chlorophenyl)-4,4-dimethylcyclohex-1-en-1-yl]methyl}piperazin-1-yl)-N-({4-[(2-cyanoethyl)amino]-3-nitrophenyl}sulfonyl)-2-(1H-pyrrolo[2,3-b]pyridin-5-yloxy)benzamide]", "pKi": "> 11.00"}, {"smiles": "CC1(C)CCC(CN2CCN(c3ccc(C(=O)NS(=O)(=O)c4ccc(NN5CCS(=O)(=O)CC5)c([N+](=O)[O-])c4)c(Oc4cnc5[nH]ccc5c4)c3)CC2)=C(c2ccc(Cl)cc2)C1", "note": "[Compound 107, trans-4-(4-{[2-(4-chlorophenyl)-4,4-dimethylcyclohex-1-en-1-yl]methyl}piperazin-1-yl)-N-({4-[(1,1-dioxidothiomorpholin-4-yl)amino]-3-nitrophenyl}sulfonyl)-2-(1H-pyrrolo[2,3-b]pyridin-5-yloxy)benzamide]", "pKi": 10.46}, {"smiles": "CC1(C)CCC(CN2CCN(c3ccc(C(=O)NS(=O)(=O)c4ccc(NC[C@H]5CC[C@H](O)CC5)c([N+](=O)[O-])c4)c(Oc4cnc5[nH]ccc5c4)c3)CC2)=C(c2ccc(Cl)cc2)C1", "note": "[Compound 120]", "pKi": "> 11.00"}, {"smiles": "CC1(C)CCC(CN2CCN(c3ccc(C(=O)NS(=O)(=O)c4cnc(OCC5(F)CCN(C(CF)CF)CC5)c(Cl)c4)c(Oc4cnc5[nH]ccc5c4)c3)CC2)=C(c2ccc(Cl)cc2)C1", "note": "[Compound 282, N-[(5-chloro-6-{[1-(1,3-difluoropropan-2-yl)-4-fluoropiperidin-4-yl]methoxy}pyridin-3-yl)sulfonyl]-4-(4-{[2-(4-chlorophenyl)-4,4-dimethylcyclohex-1-en-1-yl]methyl}piperazin-1-yl)-2-(1H-pyrrolo[2,3-b]pyridin-5-yloxy)benzamide]", "pKi": "> 11.00"}, {"smiles": "CC1CN(c2ccc(C(=O)NS(=O)(=O)c3ccc(NCC4CCOCC4)c([N+](=O)[O-])c3)c(Oc3cnc4[nH]ccc4c3)c2)CCN1CC1=C(c2ccc(Cl)cc2)CC(C)(C)CC1", "note": "(stereo not shown) [Compound 290, 4-(4-{[2-(4-chlorophenyl)-4,4-dimethylcyclohex-1-en-1-yl]methyl}-3-methylpiperazin-1-yl)-N-({3-nitro-4-[(tetrahydro-2H-pyran-4-ylmethyl)amino]phenyl}sulfonyl)-2-(1H-pyrrolo[2,3-b]pyridin-5-yloxy)benzamide]", "pKi": "> 11.00"}, {"smiles": "CC1(C)CCC(CN2CCN(c3ccc(C(=O)NS(=O)(=O)c4ccc(OC[C@@H]5CC(F)(F)CN5C5COC5)c([N+](=O)[O-])c4)c(Oc4cnc5[nH]ccc5c4)c3)CC2)=C(c2ccc(Cl)cc2)C1", "note": "[Compound 168, 4-(4-{[2-(4-chlorophenyl)-4,4-dimethylcyclohex-1-en-1-yl]methyl}piperazin-1-yl)-N-[(4-{[(2S)-4,4-difluoro-1-oxetan-3-ylpyrrolidin-2-yl]methoxy}-3-nitrophenyl)sulfonyl]-2-(1H-pyrrolo[2,3-b]pyridin-5-yloxy)benzamide]", "pKi": "> 11.00"}, {"smiles": "CC1(C)CCC(CN2CCN(c3ccc(C(=O)NS(=O)(=O)c4ccc(N[C@@H]5CCN(CCF)C5)c([N+](=O)[O-])c4)c(Oc4cnc5[nH]ccc5c4)c3)CC2)=C(c2ccc(Cl)cc2)C1", "note": "[Compound 183, 4-(4-{[2-(4-chlorophenyl)-4,4-dimethylcyclohex-1-en-1-yl]methyl}piperazin-1-yl)-N-[(4-{[(3R)-1-(2-fluoroethyl)pyrrolidin-3-yl]amino}-3-nitrophenyl)sulfonyl]-2-(1H-pyrrolo[2,b]pyridin-5-yloxy)benzamide]", "pKi": "> 11.00"}, {"smiles": "O=C(NS(=O)(=O)c1ccc(NCC2CCOCC2)c([N+](=O)[O-])c1)c1ccc(N2CCN(CC3=C(c4ccc(Cl)cc4)CCC(F)(F)C3)CC2)cc1Oc1cnc2[nH]ccc2c1", "note": "[Compound 321, 4-(4-{[2-(4-chlorophenyl)-5,5-difluorocyclohex-1-en-1-yl]methyl}piperazin-1-yl)-N-({3-nitro-4-[(tetrahydro-2H-pyran-4-ylmethyl)amino]phenyl}sulfonyl)-2-(1H-pyrrolo[2,3-b]pyridin-5-yloxy)benzamide]", "pKi": "> 11.00"}, {"smiles": "O=C(NS(=O)(=O)c1ccc(NCC2CCOCC2)c([N+](=O)[O-])c1)c1ccc(N2CCN(CC3=C(c4ccc(Cl)cc4)CCC(CF)(CF)C3)CC2)cc1Oc1cnc2[nH]ccc2c1", "note": "[Compound 353, 4-(4-{[2-(4-chlorophenyl)-5,5-bis(fluoromethyl)cyclohex-1-en-1-yl]methyl}piperazin-1-yl)-N-({3-nitro-4-[(tetrahydro-2H-pyran-4-ylmethyl)amino]phenyl}sulfonyl)-2-(1H-pyrrolo[2,3-b]pyridin-5-yloxy)benzamide]", "pKi": "> 11.00"}, {"smiles": "CC1(C)CCC(CN2CCN(c3ccc(C(=O)NS(=O)(=O)c4ccc(NCC5CCN(C6CC6)CC5)c([N+](=O)[O-])c4)c(Oc4cnc5[nH]ccc5c4)c3)CC2)=C(c2ccc(Cl)cc2)C1", "note": "[Compound 164, 4-(4-{[2-(4-chlorophenyl)-4,4-dimethylcyclohex-1-en-1-yl]methyl}piperazin-1-yl)-N-[(4-{[(1-cyclopropylpiperidin-4-yl)methyl]amino}-3-nitrophenyl)sulfonyl]-2-(1H-pyrrolo[2,3-b]pyridin-5-yloxy)benzamide]", "pKi": "> 11.00"}, {"smiles": "CC1(C)CCC(CN2CCN(c3ccc(C(=O)NS(=O)(=O)c4ccc(NC[C@H]5CCCOC5)c([N+](=O)[O-])c4)c(Oc4cnc5[nH]ccc5c4)c3)CC2)=C(c2ccc(Cl)cc2)C1", "note": "[Compound 13, 4-(4-{[2-(4-chlorophenyl)-4,4-dimethylcyclohex-1-en-1-yl]methyl}piperazin-1-yl)-N-[(3-nitro-4-{[(3R)-tetrahydro-2H-pyran-3-ylmethyl]amino}phenyl)sulfonyl]-2-(1H-pyrrolo[2,3-b]pyridin-5-yloxy)benzamide]", "pKi": "> 11.00"}, {"smiles": "CC1(C)CCC(CN2CCN(c3ccc(C(=O)NS(=O)(=O)c4ccc(OCC5(F)CCN(C(=O)OC(C)(C)C)CC5)c([N+](=O)[O-])c4)c(Oc4cnc5[nH]ccc5c4)c3)CC2)=C(c2ccc(Cl)cc2)C1", "note": "[Compound 126, tert-butyl 4-{[4-({[4-(4-{[2-(4-chlorophenyl)-4,4-dimethylcyclohex-1-en-1-yl]methyl}piperazin-1-yl)-2-(1H-pyrrolo[2,3-b]pyridin-5-yloxy)benzoyl]amino}sulfonyl)-2-nitrophenoxy]methyl}-4-fluoropiperidine-1-carboxylate]", "pKi": "> 11.00"}, {"smiles": "CC1(C)CCC(CN2CCN(c3ccc(C(=O)NS(=O)(=O)c4ccc(OC[C@H]5COCCO5)c([N+](=O)[O-])c4)c(Oc4cnc5[nH]ccc5c4)c3)CC2)=C(c2ccc(Cl)cc2)C1", "note": "[Compound 30, 4-(4-{[2-(4-chlorophenyl)-4,4-dimethylcyclohex-1-en-1-yl]methyl}piperazin-1-yl)-N-({4-[(2R)-1,4-dioxan-2-ylmethoxy]-3-nitrophenyl}sulfonyl)-2-(1H-pyrrolo[2,3-b]pyridin-5-yloxy)benzamide]", "pKi": "> 11.00"}, {"smiles": "CN(C)CCCOc1ccc(CNc2ccc(S(=O)(=O)NC(=O)c3ccc(N4CCN(CC5=C(c6ccc(Cl)cc6)CC(C)(C)CC5)CC4)cc3Oc3cnc4[nH]ccc4c3)cc2[N+](=O)[O-])cc1", "note": "[Compound 197, 4-(4-{[2-(4-chlorophenyl)-4,4-dimethylcyclohex-1-en-1-yl]methyl}piperazin-1-yl)-N-{[4-({4-[3-(dimethylamino)propoxy]benzyl}amino)-3-nitrophenyl]sulfonyl}-2-(1H-pyrrolo[2,3-b]pyridin-5-yloxy)benzamide]", "pKi": "> 11.00"}, {"smiles": "CC1(C)CCC(CN2CCN(c3ccc(C(=O)NS(=O)(=O)c4ccc(NCCCN(C5CCC5)C5CC5)c([N+](=O)[O-])c4)c(Oc4cnc5[nH]ccc5c4)c3)CC2)=C(c2ccc(Cl)cc2)C1", "note": "[Compound 320, 4-(4-{[2-(4-chlorophenyl)-4,4-dimethylcyclohex-1-en-1-yl]methyl}piperazin-1-yl)-N-{[4-({3-[cyclobutyl(cyclopropyl)amino]propyl}amino)-3-nitrophenyl]sulfonyl}-2-(1H-pyrrolo[2,3-b]pyridin-5-yloxy)benzamide]", "pKi": "> 11.00"}, {"smiles": "CN1CCOC(CNc2ccc(S(=O)(=O)NC(=O)c3ccc(N4CCN(CC5=C(c6ccc(Cl)cc6)CC(C)(C)CC5)CC4)cc3Oc3cnc4[nH]ccc4c3)cc2[N+](=O)[O-])C1", "note": "(stereo not shown) [Compound 134, 4-(4-{[2-(4-chlorophenyl)-4,4-dimethylcyclohex-1-en-1-yl]methyl}piperazin-1-yl)-N-[(4-{[(4-methylmorpholin-2-yl)methyl]amino}-3-nitrophenyl)sulfonyl]-2-(1H-pyrrolo[2,3-b]pyridin-5-yloxy)benzamide]", "pKi": "> 11.00"}]}]}
